Tested on: 4T1.2-Luc TNBC tumors
Assay: 4T1.2-Luc orthotopic TNBC mouse model, unilateral tumor: tumor volume, tumor weight and body weight
Format: in vivo, female BALB/c mice
Settings: trehalose IP
Source text: The model was created by orthotopically injecting 4T1.2-Luc cells in the 4th mammary fat pad of Balb/c mice, with 1×10^5 cells per mouse. The cell line was developed by Dr. Cheryl Jorcyk and it expresses luciferase gene which serves as a luminescent indicator of gene expression or tumorigenesis, making the tumor cell traceable in vivo. Treatment started after the formation of palpable tumors and was detected by in vivo BLI (IVIS, Perkin Elmer) followed by randomization of the animals per group. For evaluating the effect of the peptides on this model, we carried out two separate studies. The first pilot study involved a set of 4 mice per group with bilateral mammary tumors, which received six IP administration of PBS, 9S1R-NulloPT drug at 50 mg/kg, 100 mg/Kg body weight or Trehalose, over a period of 2 weeks. The present study includes a set of 7–9 mice per group with unilateral tumors including the same groups as previous, but received a total of eight injections per mouse over a period of 2 weeks. […]
Mice were anesthetized by isoflurane followed by measurement of the tumor length and width using a manual Vernier caliper. This was performed before every drug administration and the tumor volume was calculated using the formula (length × width^2)/2. Body weights were also measured before every dose of the drug.

## OC[C@H]1O[C@H](O[C@H]2O[C@H](CO)[C@@H](O)[C@H](O)[C@H]2O)[C@H](O)[C@@H](O)[C@@H]1O [Trehalose]
  post mortem tumor size, trehalose only group: no significant change
